This is an account of results in US11926574B2, “Dimethoxyphenylalkylamine activators of serotonin receptors” (Entheogenix Biosciences, Inc., priority 2021, dated 2024).

A word on the EC50: it is the concentration at which the effect is half-maximal.

Format in all cases: cell-based
Assay [1] concerns the target T1, 5-HT1A (Homo sapiens, UniProt P08908).
T1 sequence (P08908 1-422): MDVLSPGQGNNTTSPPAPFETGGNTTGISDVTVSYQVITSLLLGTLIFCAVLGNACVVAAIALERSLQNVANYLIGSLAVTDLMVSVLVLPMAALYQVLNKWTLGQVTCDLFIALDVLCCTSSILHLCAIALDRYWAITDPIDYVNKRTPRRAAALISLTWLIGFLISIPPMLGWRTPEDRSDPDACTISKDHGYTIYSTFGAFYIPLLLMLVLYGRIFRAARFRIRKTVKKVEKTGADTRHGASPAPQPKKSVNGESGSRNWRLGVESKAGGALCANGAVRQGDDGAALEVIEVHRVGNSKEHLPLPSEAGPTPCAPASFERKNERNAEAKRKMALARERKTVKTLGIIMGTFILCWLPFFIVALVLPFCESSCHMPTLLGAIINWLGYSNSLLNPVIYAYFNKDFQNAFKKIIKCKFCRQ
The experiment in a line: Calcium mobilization assay (Gq signaling), 5-HT1A. Here is the method: (§1) The Calcium No-Wash^PLUS assay monitors the activation of a GPCR via Gq secondary messenger signaling in a live cell, non-imaging assay format. Calcium mobilization in PathHunter® cell lineSOR other cell lines stably expressing Gq-Coupled GPCR5 is monitored using a calcium-sensitive dye that is loaded into cells. GPCR activation by a compound results in the release of calcium from intracellular stores and an increase in dye fluorescence that is measured in real-time.
(§2) Cell lines expressing the GPCR of interest were expanded from freezer stocks according to standard procedures. […] Compound agonist activity was measured on a FLIPR Tetra (MDS). Calcium mobilization was monitored for 2 minutes and 10 μL 4× sample in HB SS/20 mM Hepes was added to the cells 5 seconds into the assay. Compound activity data was analyzed using CBIS data analysis suite (ChemInnovation, California). For agonist mode assays, percentage activity is calculated using the following formula: % Activity=100%×(mean RFU of test sample−mean RFU of vehicle control)/(mean MAX RFU control ligand−mean RFU of vehicle control). […]
(§3) Compounds 1-1·HCl, 1-2 and 2-1 were assessed for biological activity across a panel of 5-HT receptors including 5-HT2A, 5-HT2B, 5-HT2C and 5-HT1A. Biased signaling was assessed by monitoring both intracellular Gq-mediated calcium release, as well as beta-arrestin activation and recruitment to the GPCR.
In general terms: Calcium flux is commonly read through the fluorescence of an indicator in the cells.

Assay [2] concerns the target T2, 5HT2A (Homo sapiens, UniProt P28223). Kind of assay: Calcium mobilization assay (Gq signaling), 5-HT2A. The settings on record: for type of agonism of 5-HT2A mediated signaling: EC50 profiles, FIG. 1; for Emax: read-out: maximum effect level, Gq signaling. Here is the method:
as §1
(§4) Cell lines expressing the GPCR of interest were expanded from freezer stocks according to standard procedures. Cells were seeded in a total volume of 20 μL into black-walled, clear-bottom, Poly-D-lysine coated 384-well microplates and incubated at 37° C. for the appropriate time prior to testing. Assays were performed in 1× Dye Loading Buffer consisting of 1× Dye, 1× Additive A and 2.5 mM Probenecid in HB SS/20 mM Hepes. Probenicid was prepared fresh. Cells were loaded with dye prior to testing. Media was aspirated from cells and replaced with 20 μL Dye Loading Buffer. Cells were incubated for 30-60 minutes at 37° C. For agonist determination, cells were incubated with sample to induce response. After dye loading, cells were removed from the incubator and 10 μL HBSS/20 mM Hepes was added. 3× vehicle was included in the buffer when performing agonist dose curves to define the EC80 for subsequent antagonist assays. Cells were incubated for 30 minutes at room temperature in the dark to equilibrate plate temperature. Intermediate dilution of sample stocks was performed to generate 4× sample in assay buffer. Compound agonist activity was measured on a FLIPR Tetra (MDS). Calcium mobilization was monitored for 2 minutes and 10 μL 4× sample in HB SS/20 mM Hepes was added to the cells 5 seconds into the assay. Compound activity data was analyzed using CBIS data analysis suite (ChemInnovation, California). For agonist mode assays, percentage activity is calculated using the following formula: % Activity=100%×(mean RFU of test sample−mean RFU of vehicle control)/(mean MAX RFU control ligand−mean RFU of vehicle control). In these studies, the MAX RFU was generated by using 0.1 μM serotonin for the calcium mobilization assay.
as §3

Assay [3] has as its target 5-HT2B (Homo sapiens, UniProt P41595). Kind of assay: Calcium mobilization assay (Gq signaling), 5-HT2B. On the procedure: as §1
as §4, with “3× vehicle was included in the buffer when performing agonist dose curves to define the EC80 for subsequent antagonist assays. Cells were incubated for 30 minutes at room temperature in the dark to equilibrate plate temperature. Intermediate dilution of sample stocks was performed to generate 4× sample in assay buffer.” left out, “In these studies, the MAX RFU was generated by using 0.1 μM serotonin for the calcium mobilization assay.” left out
as §3

Assay [4] addresses T3, 5-HT2C (Homo sapiens, UniProt P28335).
T3 sequence (P28335 33-458): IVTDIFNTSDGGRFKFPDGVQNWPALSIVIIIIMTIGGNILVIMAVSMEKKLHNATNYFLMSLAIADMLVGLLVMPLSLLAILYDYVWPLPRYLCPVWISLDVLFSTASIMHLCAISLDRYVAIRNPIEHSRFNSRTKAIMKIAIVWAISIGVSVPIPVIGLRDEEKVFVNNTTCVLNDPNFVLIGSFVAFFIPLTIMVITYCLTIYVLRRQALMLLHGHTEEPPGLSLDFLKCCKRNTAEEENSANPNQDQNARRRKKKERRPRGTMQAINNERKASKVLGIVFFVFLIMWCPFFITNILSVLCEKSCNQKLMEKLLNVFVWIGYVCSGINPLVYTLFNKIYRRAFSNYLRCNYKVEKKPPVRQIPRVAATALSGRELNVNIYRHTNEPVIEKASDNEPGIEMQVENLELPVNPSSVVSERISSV
Kind of assay: Calcium mobilization assay (Gq signaling), 5-HT2C. Here is the method:
as §1, §2, §3

Assay [5] concerns the target T2, 5HT2A. The experiment in a line: PathHunter β-Arrestin assay, 5-HT2A. Here is the method: PathHunter cell lines (DiscoveRx Eurofins) were expanded from freezer stocks according to standard procedures. Cells were seeded in a total volume of 20 μL into white walled, 384-well microplates and incubated at 37° C. for the appropriate time prior to testing. For agonist determination, cells were incubated with sample to induce response. Intermediate dilution of sample stocks was performed to generate 5× sample in assay buffer. 5 μL of 5× sample was added to cells and incubated at 37° C. or room temperature for 90 to 180 minutes. […] Microplates were read following signal generation with a PerkinElmer Envision™ instrument for chemiluminescent signal detection. Compound activity was analyzed using CBIS data analysis suite (ChemInnovation, California). For agonist mode assays, percentage activity was calculated using the following formula: % Activity=100%×(mean RLU of test sample−mean RLU of vehicle control)/(mean MAX control ligand−mean RLU of vehicle control). […]
as §3

Assay [6] deals with T2, 5HT2A. The experiment in a line: 5HT2A Activity (% Max Activation @ 0.3 uM).

Structures can show the parent of a compound that is named as a salt. Where two headings read alike, the source gives them in different places.

T2 sequence (P28223 whole entry): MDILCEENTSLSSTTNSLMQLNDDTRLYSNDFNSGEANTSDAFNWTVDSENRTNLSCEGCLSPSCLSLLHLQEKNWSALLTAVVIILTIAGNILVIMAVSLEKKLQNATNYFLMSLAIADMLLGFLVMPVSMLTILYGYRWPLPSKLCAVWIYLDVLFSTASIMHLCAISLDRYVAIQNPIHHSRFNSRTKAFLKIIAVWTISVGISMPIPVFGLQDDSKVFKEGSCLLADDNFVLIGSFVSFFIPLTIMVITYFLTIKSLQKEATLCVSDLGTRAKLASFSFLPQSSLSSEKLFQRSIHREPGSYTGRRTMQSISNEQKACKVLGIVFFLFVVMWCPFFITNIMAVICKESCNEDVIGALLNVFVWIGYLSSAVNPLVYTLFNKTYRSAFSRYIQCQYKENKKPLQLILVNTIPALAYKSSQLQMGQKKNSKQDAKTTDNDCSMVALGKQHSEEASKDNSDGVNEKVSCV
5-HT2B, sequence (P41595 whole entry): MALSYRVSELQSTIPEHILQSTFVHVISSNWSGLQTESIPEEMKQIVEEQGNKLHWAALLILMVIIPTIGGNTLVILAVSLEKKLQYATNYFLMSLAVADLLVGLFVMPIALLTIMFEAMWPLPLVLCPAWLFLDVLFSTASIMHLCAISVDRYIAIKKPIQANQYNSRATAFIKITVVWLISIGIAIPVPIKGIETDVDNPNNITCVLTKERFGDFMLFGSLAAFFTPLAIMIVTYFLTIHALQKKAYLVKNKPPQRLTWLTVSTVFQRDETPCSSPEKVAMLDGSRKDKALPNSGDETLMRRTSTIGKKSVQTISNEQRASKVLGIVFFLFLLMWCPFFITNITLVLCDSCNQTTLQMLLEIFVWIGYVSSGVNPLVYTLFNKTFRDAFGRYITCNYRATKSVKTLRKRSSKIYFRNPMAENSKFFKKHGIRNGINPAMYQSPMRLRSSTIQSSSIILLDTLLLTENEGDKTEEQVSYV

On to `COc1ccc(OC)c(CCNCc2cc(C)cc(Cl)c2)c1` [Compound 2-1, N-(3-chloro-5-methylbenzyl)-2-(2,5-dimethoxyphenyl)ethan-1-amine], for which the concentration for a half-maximal effect (EC50) came to 24.7 µM in assay [1]; 0.01 µM in assay [2]; 44.1 µM in assay [3]; 0.091 µM in assay [4]; 0.023 µM in assay [5]. Besides, in assay [2] (5-HT2A compared to 5-HT2B), the “selectivity for 5-HT2A over 5-HT2B” value was roughly 4400 fold. In assay [2], the “type of agonism of 5-HT2A mediated signaling” value is “partial-agonist”. Moreover, in assay [2], the Emax is roughly 86%. For the same compound, the “activity at 5-HT2B” value in assay [3] (concentrations less than 10 uM) is on record as “no appreciable activity”. Further, the Emax at 0.3 µM in assay [6] amounted to 98%.

On to `COc1ccc(OC)c2c1CCC(NCc1cc(C)cc(Cl)c1)C2` (centres unmarked) [1-1·HCl, N-(3-chloro-5-methylbenzyl)-5,8-dimethoxy-1,2,3,4-tetrahydronaphthalen-2-amine hydrochloride], for which the EC50 was found to be 17.2 µM in assay [1] (Gq signaling, read-out: EC50, 5-HT1A (Gq signaling)); 0.134 µM in assay [2]; 23.2 µM in assay [3] (Gq signaling, read-out: EC50, 5-HT2B (Gq signaling)); 10 µM in assay [4] (Gq signaling, read-out: EC50, 5-HT2C (Gq signaling)); 0.172 µM in assay [5]. Moreover, in assay [2], the “type of agonism of 5-HT2A mediated signaling” value is on record as “full-agonism”. The Emax in assay [2] was roughly 100%.
